Data taken from US20210115104A1, “AMYLIN ANALOGUES” (Zealand Pharma A/S, priority 2015, published 2021).
*1 amine or outer side, *2 acyl side, *3 side chain or, on linkers, in order; H or OH if unused. Where a SMILES comes first, the peptide text is derived from it. Bridges are numbered along the chain shown (N, C = ends). [ ]: non-standard residue; d: D form. The star is where a group is joined. C20 diacid = O=C(O)CCCCCCCCCCCCCCCCCCC(=O)*; γGlu = O=C(O)[C@H](CCC(=O)[*:2])N[*:1]; Hyp = O=C(O)[C@@H]1C[C@@H](O)CN1; NMeI = CC[C@H](C)[C@H](NC)C(=O)O; Sar = CNCC(=O)O

Key:
[1] = molecular target: T1, human amylin receptor 3 (hAMYR3), hCTR2 co-expressed with hRAMP3 (Homo sapiens, UniProt O60896+P30988); test: hAMYR3 cAMP assay (AlphaScreen) in COS7 cells; assay type: cell-based; conditions: cAMP induction, COS7 cells expressing hAMYR3; Table 1; read-out: hAMYR3 EC50
T1 construct: expressed in transfected cells
T1 sequence (P30988 25-474): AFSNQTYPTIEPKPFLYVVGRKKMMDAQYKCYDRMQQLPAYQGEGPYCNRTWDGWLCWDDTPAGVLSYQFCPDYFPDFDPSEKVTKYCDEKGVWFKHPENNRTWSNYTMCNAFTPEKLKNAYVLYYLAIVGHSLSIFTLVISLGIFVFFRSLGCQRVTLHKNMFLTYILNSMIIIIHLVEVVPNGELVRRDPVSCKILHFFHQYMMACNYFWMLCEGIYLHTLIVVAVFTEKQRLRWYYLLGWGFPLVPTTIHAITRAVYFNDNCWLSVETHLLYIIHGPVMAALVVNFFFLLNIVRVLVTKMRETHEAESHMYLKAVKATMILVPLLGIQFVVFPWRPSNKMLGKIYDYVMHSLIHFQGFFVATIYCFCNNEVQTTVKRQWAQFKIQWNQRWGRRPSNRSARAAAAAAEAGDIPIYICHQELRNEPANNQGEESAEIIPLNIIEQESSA
T1 sequence (O60896 24-148 partner): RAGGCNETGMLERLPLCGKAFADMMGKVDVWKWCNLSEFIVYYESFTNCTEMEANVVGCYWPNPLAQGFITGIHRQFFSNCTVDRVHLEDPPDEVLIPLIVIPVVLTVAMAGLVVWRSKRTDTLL
Excerpt: The cell line COS7, originating from African Green Monkey kidney fibroblast cells, was used for establishment of the stable cell lines described below. The COS7 cellular background was used due to it being RAMP naïve, and as such it provides the best available system for testing of the monomeric hCTR and different heterodimeric amylin receptor subtypes functionally generated by introduction of the individual RAMPs.
A cell line expressing the human amylin receptor 3 (hAMYR3) was generated in the COS7 cellular background as stable clones. In brief, hCTR2 (GI:4502547) and hRAMP3 (GI:118572586) were amplified by PCR using primers encoding terminal restriction sites for subcloning. The 5′-end primers additionally encoded a near Kozak consensus sequence to ensure efficient translation. The fidelity of the DNA encoding the receptor was confirmed by DNA sequencing. The PCR products encoding the receptor were subcloned into a proprietary tri-cistronic mammalian expression vector with RAMP3, hCTR2 and neomycin (G418) resistance marker. The mammalian expression vector encoding the receptor was transfected into COS7 cells by a standard liposome transfection method. 48 hours post-transfection, cells were seeded for limited dilution cloning and selected with 1 mg/ml G418 in the culture medium. After 3 weeks, surviving colonies of hAMY3R-expressing cells were picked, propagated and tested in the amylin efficacy assay as described in Example 3 below. The functional generation of the amylin receptor phenotype was verified in the efficacy assay by a left-shifted efficacy response to amylin relative to monomeric calcitonin receptor, and one hAMYR3-expressing clone was chosen for compound profiling.
In vitro activity of test peptides at the hCTR2 and hAMYR3 receptors was assessed by measuring the induction of cAMP following stimulation of the receptor using the AlphaScreen® cAMP Assay kit from Perkin-Elmer.
Briefly, COS7 cells expressing hCTR2 (see Example 2, above) were seeded at 30-40,000 cells per well in 96-well microtiter plates coated with 0.01% poly-L-lysine, and grown for 1 day in culture in 100 μl growth medium [DMEM, 10% FCS, Penicillin (100 IU/ml), Streptomycin (100 μg/ml)]. On the day of analysis, growth medium was removed and the cells were washed once with 200 μl Tyrode buffer [Tyrode's Salts (9.6 g/I), 10 mM HEPES, pH 7.4]. Cells were incubated in 100 μl Tyrode buffer containing increasing concentrations of test peptides, 100 µM IBMX and 0.1% casein for 15 min at 37° C. The reaction was stopped by carefully decanting off the compound/buffer medium and replacing it with lysis/detection buffer (80 μl 0.1% w/v BSA, 5 mM HEPES, 0.3% v/v Tween-20 in deionized water). After incubation at room temperature for 10 min., the cAMP content of the resulting cell lysate was estimated according to the AlphaScreen® cAMP Assay manufacturer's instructions. EC50 values were estimated by computer-aided curve fitting using the 4-parameter logistic (4PL) non-linear model.

[2] = Assessment of physical stability (Thioflavin T fibrillation); assay type: physicochemical; parameters: key: FND = fibrillation not detected; FD = fibrillation detected; conditions: 1 mg/ml, 40° C., ThT; for Fibrillation pH 4.0 (Ac): 50 mM acetate buffer pH 4.0, 96 hours; for Fibrillation pH 7.0 (His): 50 mM histidine buffer pH 7.0, 96 hours; for Fibrillation pH 7.0 (Phos.): 50 mM phosphate buffer pH 7.0, 96 hours
In short: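 Fibrillation lag-time, in hours, taken where regressions of the initial stable phase and the growth phase intersect. ThT (40 μM) fluorescence monitored at 40 °C for 96 h, 10-min reads each preceded by 300 s mixing. Peptide at 1 mg/ml in 50 mM buffers: phosphate or histidine pH 7.0, acetate pH 4.0.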

[3] = Assessment of chemical stability (RP-HPLC normalized purity); assay type: physicochemical; conditions: 7 days, 40° C., Table 1; for Normalized purity after 7 days, 40° C., pH 4: pH 4, 0.2 mg/ml; for Normalized purity after 7 days, 40° C., pH 6: pH 6, 0.2 mg/ml; for Normalized purity after 7 days, 40° C., pH 7.5: pH 7.5, 0.2 mg/ml; for Normalized purity after 7 days, 40° C., pH 9: pH 9, 0.2 mg/ml
In short: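 Purity after 7 days at 40° C is expressed relative to T=0 (set to 100) for each pH. Samples at 0.2 mg/ml, pH 4, 6, 7.5 or 9, analyzed by RP-HPLC with UV 220 nm on C8 (ammonium formate) or C18 (TFA) gradients.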

[4] = molecular target: T2, human calcitonin receptor (hCTR2) (Homo sapiens, UniProt P30988); test: hCTR2 cAMP assay (AlphaScreen) in COS7 cells; assay type: cell-based; conditions: cAMP induction, COS7 cells expressing hCTR2; Table 1; read-out: hCTR2 EC50
T2 construct: expressed in transfected cells
T2 sequence (P30988 25-474): T1 sequence (P30988 25-474)
In short: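 cAMP induction, read by AlphaScreen after lysis, gives EC50 values via 4PL curve fitting. Peptides were applied at rising concentrations for 15 min at 37 °C, with IBMX and 0.1% casein in HEPES-buffered Tyrode pH 7.4, to COS7 cells (no endogenous RAMPs) stably expressing human CTR2.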

Row | Compound | EC50 [1] [pM] | Fibrillation pH 4.0 (Ac) [2] | Fibrillation pH 7.0 (His) [2] | Fibrillation pH 7.0 (Phos.) [2] | Normalized purity after 7 days, 40° C., pH 4 [3] | Normalized purity after 7 days, 40° C., pH 6 [3] | Normalized purity after 7 days, 40° C., pH 7.5 [3] | Normalized purity after 7 days, 40° C., pH 9 [3] | EC50 [4] [pM]
1 | CC[C@H](C)[C@@H](C(=O)N[C@@H](CC(C)C)C(=O)N[C@@H](CO)C(=O)N[C@@H](CO)C(=O)N[C@H](C(=O)N[C@@H](CC(=O)O)C(=O)N[C@H](C(=O)NCC(=O)N[C@@H](CO)C(=O)N[C@@H](CC(N)=O)C(=O)N[C@H](C(=O)N1CCC[C@H]1C(N)=O)[C@@H](C)O)C(C)C)[C@@H](C)O)N(C)C(=O)[C@H](C)NC(=O)CN(C)C(=O)[C@H](Cc1ccccc1)NC(=O)[C@H](CO)NC(=O)[C@H](CO)NC(=O)[C@H](CCCNC(=N)N)NC(=O)[C@H](Cc1c[nH]cn1)NC(=O)[C@H](CC(C)C)NC(=O)[C@H](Cc1ccccc1)NC(=O)[C@H](Cc1c[nH]cn1)NC(=O)[C@H](C)NC(=O)[C@H](CC(C)C)NC(=O)[C@H](CCCNC(=N)N)NC(=O)[C@H](CC(=O)O)NC(=O)[C@@H](NC(=O)[C@H](C)NC(=O)[C@@H]1CSSC[C@H](NC(=O)[C@H](CCCNC(=N)N)NC(=O)CC[C@H](NC(=O)CCCCCCCCCCCCCCCCCCC(=O)O)C(=O)O)C(=O)N2CCC[C@H]2C(=O)N[C@@H]([C@@H](C)O)C(=O)N[C@@H](C)C(=O)N[C@@H]([C@@H](C)O)C(=O)N1)[C@@H](C)O [Compound 25, [19CD]-isoGlu-R-C( )-PTAT-C( )-ATDRLAHFLHRSSF-Gly(Me)-A-Ile(Me)-LSSTDVGSNTP-NH2] ({C20 diacid-γGlu}-RCPTATCATDRLAHFLHRSSF[Sar]A[NMeI]LSSTDVGSNTP-NH2; disulfide 2-7) | 94 | – | – | – | – | – | – | – | –
2 | CC[C@H](C)[C@@H](C(=O)N[C@@H](CC(C)C)C(=O)N[C@@H](CO)C(=O)N[C@@H](CO)C(=O)N[C@H](C(=O)N[C@@H](CCC(=O)O)C(=O)N[C@H](C(=O)NCC(=O)N[C@@H](CO)C(=O)N[C@@H](CC(N)=O)C(=O)N[C@H](C(=O)N1C[C@H](O)C[C@H]1C(N)=O)[C@@H](C)O)C(C)C)[C@@H](C)O)N(C)C(=O)[C@H](C)NC(=O)CN(C)C(=O)[C@H](Cc1ccccc1)NC(=O)[C@H](CO)NC(=O)[C@H](CO)NC(=O)[C@H](CCCNC(=N)N)NC(=O)[C@H](CCC(N)=O)NC(=O)[C@H](CC(C)C)NC(=O)[C@H](Cc1ccccc1)NC(=O)[C@H](Cc1c[nH]cn1)NC(=O)[C@H](C)NC(=O)[C@H](CC(C)C)NC(=O)[C@H](CCCNC(=N)N)NC(=O)[C@H](CCC(N)=O)NC(=O)[C@@H](NC(=O)[C@H](C)NC(=O)[C@@H]1CSSC[C@H](NC(=O)[C@H](CCCNC(=N)N)NC(=O)CC[C@H](NC(=O)CCCCCCCCCCCCCCCCCCC(=O)O)C(=O)O)C(=O)N[C@@H](CC(N)=O)C(=O)N[C@@H]([C@@H](C)O)C(=O)N[C@@H](C)C(=O)N[C@@H]([C@@H](C)O)C(=O)N1)[C@@H](C)O [Compound 58, [19CD]-isoGlu-R-C( )-NTAT-C( )-ATQRLAHFLQRSSF-Gly(Me)-A-Ile(Me)-LSSTEVGSNT-Hyp-NH2] ({C20 diacid-γGlu}-RCNTATCATQRLAHFLQRSSF[Sar]A[NMeI]LSSTEVGSNT[Hyp]-NH2; disulfide 2-7) | – | FND | FD | FND | A (A = >90%) | A (A = >90%) | B (B = 70-90%) | B (B = 70-90%) | 50
3 | CC[C@H](C)[C@@H](C(=O)N[C@@H](CC(C)C)C(=O)N[C@@H](CO)C(=O)N[C@@H](CO)C(=O)N[C@H](C(=O)N[C@@H](CCC(=O)O)C(=O)N[C@H](C(=O)NCC(=O)N[C@@H](CO)C(=O)N[C@@H](CC(N)=O)C(=O)N[C@H](C(=O)N1C[C@H](O)C[C@H]1C(N)=O)[C@@H](C)O)C(C)C)[C@@H](C)O)N(C)C(=O)[C@H](C)NC(=O)CN(C)C(=O)[C@H](Cc1ccccc1)NC(=O)[C@H](CO)NC(=O)[C@H](CO)NC(=O)[C@H](CCCNC(=N)N)NC(=O)[C@H](CCC(N)=O)NC(=O)[C@H](CC(C)C)NC(=O)[C@H](Cc1ccccc1)NC(=O)[C@H](Cc1c[nH]cn1)NC(=O)[C@H](C)NC(=O)[C@H](CC(C)C)NC(=O)[C@H](CCCNC(=N)N)NC(=O)[C@H](CC(=O)O)NC(=O)[C@@H](NC(=O)[C@H](C)NC(=O)[C@@H]1CSSC[C@H](NC(=O)[C@H](CCCNC(=N)N)NC(=O)CC[C@H](NC(=O)CCCCCCCCCCCCCCCCCCC(=O)O)C(=O)O)C(=O)N[C@@H](CCC(N)=O)C(=O)N[C@@H]([C@@H](C)O)C(=O)N[C@@H](C)C(=O)N[C@@H]([C@@H](C)O)C(=O)N1)[C@@H](C)O [Compound 88, [19CD]-isoGlu-R-C( )-QTAT-C( )-ATDRLAHFLQRSSF-Gly(Me)-A-Ile(Me)-LSSTEVGSNT-Hyp-NH2] ({C20 diacid-γGlu}-RCQTATCATDRLAHFLQRSSF[Sar]A[NMeI]LSSTEVGSNT[Hyp]-NH2; disulfide 2-7) | – | FND | FND | FND | A (A = >90%) | A (A = >90%) | A (A = >90%) | A (A = >90%) | 60
